In PubChem BioAssay (NCI):
Where “and” joins values, the source holds several entries; their conditions need not be identical. Equal entries are not always repeated.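 Values below derive from 48-hour exposures of cells grown in 96-well plates, with endpoints linearly interpolated between the two concentrations bracketing the appropriate inhibition level. GI50 is the concentration that inhibits growth by half. TGI: concentration producing complete growth inhibition.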

Key:
Test in all cases: NCI-60 cell line screen, 48 h
UACC-62 melanoma = test system: UACC-62 melanoma
A498 renal = test system: A498 renal
M14 melanoma = test system: M14 melanoma
UO-31 renal = test system: UO-31 renal
T-47D breast = test system: T-47D breast
LOX IMVI melanoma = test system: LOX IMVI melanoma
HCT-116 colon = test system: HCT-116 colon
HCT-15 colon = test system: HCT-15 colon
HL-60(TB) leukemia = test system: HL-60(TB) leukemia
TK-10 renal = test system: TK-10 renal

## COc1ccc(C(=O)Nc2ncc(Cc3ccc(F)cc3)s2)cc1
UACC-62 melanoma
  GI50: 0.0469 µM
  TGI: > 94.4 µM
A498 renal
  GI50: 0.0204 µM
  TGI: 0.0898 µM
M14 melanoma
  GI50: 0.0378 µM
  TGI: > 100 µM
UO-31 renal
  GI50: 0.908 µM
  TGI: > 100 µM
T-47D breast
  GI50: 0.06 µM
  TGI: > 100 µM
LOX IMVI melanoma
  GI50: 0.0673 µM
  TGI: > 100 µM
HCT-116 colon
  GI50: 0.0519 µM
  TGI: > 100 µM
HCT-15 colon
  GI50: 0.0429 µM
  TGI: > 100 µM
HL-60(TB) leukemia
  GI50: 0.0315 µM
  TGI: 0.169 µM
TK-10 renal
  GI50: 4.31 µM
  TGI: 98.3 µM

## CC1OC(OC2C(OC3C[C@@]4(C)C(C[C@H](O)[C@H]5[C@H](C6(C)CCC(C(C)(C)O)O6)CCC54C)[C@]4(C)CC[C@@H](O)C(C)(C)C34)OC(CO)C(O)C2O)C(O)C(O)C1O (stereo partly drawn) (tested in a mixture with another compound)
UACC-62 melanoma
  TGI: > 100 µM
A498 renal
  TGI: > 100 µM
M14 melanoma
  TGI: > 100 µM
UO-31 renal
  TGI: > 100 µM
T-47D breast
  TGI: > 100 µM
LOX IMVI melanoma
  TGI: > 100 µM
HCT-116 colon
  TGI: > 100 µM
HCT-15 colon
  TGI: > 100 µM
HL-60(TB) leukemia
  TGI: > 100 µM
TK-10 renal
  TGI: > 100 µM

## O=C(c1ccc(O)cc1)c1ccc(C(=O)c2ccc(O)cc2)cc1
UACC-62 melanoma
  GI50: > 100 µM
  TGI: > 100 µM
A498 renal
  GI50: > 100 µM
  TGI: > 100 µM
M14 melanoma
  GI50: > 100 µM
  TGI: > 100 µM
T-47D breast
  GI50: 4.69 µM
  TGI: > 100 µM
LOX IMVI melanoma
  GI50: > 100 µM
  TGI: > 100 µM
HCT-116 colon
  GI50: > 100 µM
  TGI: > 100 µM
HCT-15 colon
  GI50: > 100 µM
  TGI: > 100 µM
HL-60(TB) leukemia
  GI50: > 100 µM
  TGI: > 100 µM
TK-10 renal
  GI50: > 100 µM
  TGI: > 100 µM

## Cc1c(N2C(=O)/C(=C\c3ccc(O)cc3)N=C2c2ccccc2)c(=O)n(-c2ccccc2)n1C
UACC-62 melanoma
  GI50: > 100 µM
  TGI: > 100 µM
A498 renal
  GI50: > 100 µM
  TGI: > 100 µM
M14 melanoma
  GI50: > 100 µM
  TGI: > 100 µM
UO-31 renal
  GI50: > 100 µM
  TGI: > 100 µM
T-47D breast
  GI50: > 100 µM
  TGI: > 100 µM
LOX IMVI melanoma
  GI50: > 100 µM
  TGI: > 100 µM
HCT-116 colon
  GI50: > 100 µM
  TGI: > 100 µM
HCT-15 colon
  GI50: > 100 µM
  TGI: > 100 µM
HL-60(TB) leukemia
  GI50: > 100 µM
  TGI: > 100 µM
TK-10 renal
  GI50: > 100 µM
  TGI: > 100 µM

## O=C1C2C(C(=O)[N]1[Hg][c]1ccccc1)C1(Cl)C(Cl)=C(Cl)C2(Cl)C1(Cl)Cl (stereo not drawn)
UACC-62 melanoma
  GI50: 1.37 µM
  TGI: 2.72 µM
A498 renal
  GI50: 2.45 µM
  TGI: 11.9 µM
M14 melanoma
  GI50: 1.16 µM
  TGI: 2.43 µM
UO-31 renal
  GI50: 1.73 µM
  TGI: 3.57 µM
T-47D breast
  GI50: 0.225 µM
  TGI: 1.58 µM
LOX IMVI melanoma
  GI50: 1.02 µM
  TGI: 2.39 µM
HCT-116 colon
  GI50: 1.54 µM
  TGI: 2.87 µM
HCT-15 colon
  GI50: 0.583 µM
  TGI: 2.2 µM
HL-60(TB) leukemia
  GI50: 2.51 µM
  TGI: 8.77 µM
TK-10 renal
  GI50: 1.51 µM
  TGI: 2.86 µM

## Cc1cc[c-]cc1.Fc1c[c-]c(-c2ccccn2)c(F)c1.N#CCC[PH+](CCC#N)c1ccccc1.[Pt+2]
UACC-62 melanoma
  GI50: 1.79 µM
  TGI: 4.43 µM
A498 renal
  GI50: 2.18 µM
  TGI: 8.5 µM
M14 melanoma
  GI50: 2.94 µM
  TGI: 10.9 µM
UO-31 renal
  GI50: 1.45 µM
  TGI: 2.82 µM
T-47D breast
  GI50: 2.79 µM
  TGI: 41.1 µM
LOX IMVI melanoma
  GI50: 2.26 µM
  TGI: 5.18 µM
HCT-116 colon
  GI50: 2.25 µM
  TGI: 5.91 µM
HCT-15 colon
  GI50: 2.89 µM
  TGI: 11.6 µM
HL-60(TB) leukemia
  GI50: 2.37 µM
  TGI: 18.1 µM
TK-10 renal
  GI50: 4.45 µM
  TGI: 36 µM

## COc1ccc(-c2nnc3n(C)c(=O)c4ccccc4n23)cc1O
UACC-62 melanoma
  GI50: 0.441 µM
  TGI: 27.1 µM
A498 renal
  GI50: 6.42 µM
  TGI: 36.6 µM
M14 melanoma
  GI50: 0.127 µM
  TGI: 25.9 µM
UO-31 renal
  GI50: 2.13 µM
  TGI: > 100 µM
T-47D breast
  GI50: 2.41 µM
  TGI: > 100 µM
LOX IMVI melanoma
  GI50: 1.25 µM
  TGI: > 100 µM
HCT-116 colon
  GI50: 0.161 µM
  TGI: > 50.3 µM
HCT-15 colon
  GI50: 0.153 µM
  TGI: > 100 µM
HL-60(TB) leukemia
  GI50: 0.13 µM
  TGI: 1.32 µM
TK-10 renal
  GI50: 6.8 µM
  TGI: > 100 µM

## Cc1ccc(C(=O)Nc2ccc(CN3CCN(C)CC3)c(C(F)(F)F)c2)cc1C#Cc1cncc2ncccc12
UACC-62 melanoma
  GI50: 0.102 µM
  TGI: 1.26 µM
A498 renal
  GI50: 0.209 µM
  TGI: 0.656 µM
M14 melanoma
  GI50: 0.0877 µM
  TGI: 0.9 µM
UO-31 renal
  GI50: 0.191 µM
  TGI: 0.903 µM
T-47D breast
  GI50: 1.58 µM
  TGI: 21.1 µM
LOX IMVI melanoma
  GI50: 0.0978 µM
  TGI: 0.554 µM
HCT-116 colon
  GI50: 0.274 µM
  TGI: 3.87 µM
HCT-15 colon
  GI50: 0.318 µM
  TGI: 1.28 µM
HL-60(TB) leukemia
  GI50: 0.282 µM
  TGI: 1.61 µM
TK-10 renal
  GI50: 0.253 µM
  TGI: 1.41 µM

## Cc1cc(-c2ccccc2)c(C)n1Cc1ccc(Cl)cc1
UACC-62 melanoma
  GI50: 3.44 µM
  TGI: > 100 µM
A498 renal
  GI50: 2.21 µM
  TGI: 47.9 µM
M14 melanoma
  GI50: 3.21 µM
  TGI: 31.6 µM
UO-31 renal
  GI50: 5.45 µM
  TGI: > 100 µM
T-47D breast
  GI50: 5.26 µM
  TGI: > 100 µM
LOX IMVI melanoma
  GI50: 6.95 µM
  TGI: > 100 µM
HCT-116 colon
  GI50: 3.8 µM
  TGI: 23.4 µM
HCT-15 colon
  GI50: 2.86 µM
  TGI: > 100 µM
HL-60(TB) leukemia
  GI50: 4.3 µM
  TGI: 55.8 µM
TK-10 renal
  GI50: 9.66 µM
  TGI: 65.4 µM

## O=C1Nc2ccccc2C12CC(c1ccccc1)=NN2 (stereo not drawn)
UACC-62 melanoma
  GI50: 4.38 µM
  TGI: > 100 µM
A498 renal
  GI50: 1.85 µM
  TGI: 9.24 µM
M14 melanoma
  GI50: 4.9 µM
  TGI: 46.3 µM
UO-31 renal
  GI50: 14.6 µM
  TGI: > 100 µM
T-47D breast
  GI50: 6.98 µM
  TGI: > 100 µM
LOX IMVI melanoma
  GI50: 6.46 µM
  TGI: 87.4 µM
HCT-116 colon
  GI50: 4.83 µM
  TGI: > 100 µM
HCT-15 colon
  GI50: 4.17 µM
  TGI: > 100 µM
HL-60(TB) leukemia
  GI50: 3.29 µM
  TGI: 15.3 µM

## CC[C@](O)(C(=O)O)c1cc2n(c(=O)c1CO)Cc1cc3ccccc3nc1-2
UACC-62 melanoma
  GI50: 0.00348 µM
  TGI: 0.121 µM and 0.0422 µM and 0.0555 µM
A498 renal
  GI50: 0.015 µM and 0.0448 µM
  TGI: 0.114 µM and 0.261 µM and 0.145 µM
M14 melanoma
  GI50: 0.0108 µM
  TGI: 0.0511 µM and 0.181 µM
UO-31 renal
  GI50: 0.0189 µM
  TGI: 0.161 µM and 0.167 µM
T-47D breast
  GI50: < 0.0025 µM
  TGI: 0.0755 µM
LOX IMVI melanoma
  GI50: 0.00507 µM and 0.0264 µM
  TGI: 0.307 µM and 0.686 µM and 0.652 µM
HCT-116 colon
  TGI: 0.622 µM
HCT-15 colon
  GI50: 0.26 µM and 0.0703 µM
  TGI: 25 µM and 7.92 µM
HL-60(TB) leukemia
  GI50: < 0.0025 µM
  TGI: 0.347 µM and 2.5 µM
TK-10 renal
  GI50: 1.1 µM
  TGI: 4.38 µM and > 24.8 µM

## CN(C)CCCNC(=O)c1cc2c3ccccc3[nH]c2c2ncccc12
UACC-62 melanoma
  GI50: 16 µM
  TGI: 30.1 µM
A498 renal
  GI50: 14.8 µM
  TGI: 31.7 µM
UO-31 renal
  GI50: 10.9 µM
  TGI: > 100 µM
T-47D breast
  GI50: 19.4 µM
  TGI: 61.2 µM
LOX IMVI melanoma
  GI50: 8.34 µM
  TGI: 23.8 µM
HCT-116 colon
  GI50: 9.46 µM
  TGI: 49.2 µM
HCT-15 colon
  GI50: 11.6 µM
  TGI: 58.5 µM
HL-60(TB) leukemia
  GI50: 16 µM
  TGI: 41.7 µM
TK-10 renal
  GI50: 15.5 µM
  TGI: > 100 µM

## COc1cc(C2c3cc4c(cc3C3OC(=O)C2C3CO)OCO4)cc(OC)c1OC (stereo not drawn)
UACC-62 melanoma
  GI50: < 0.0136 µM
  TGI: > 100 µM
A498 renal
  GI50: < 0.01 µM
  TGI: 0.0605 µM
M14 melanoma
  GI50: 0.0333 µM
  TGI: > 100 µM
UO-31 renal
  GI50: 0.0644 µM
  TGI: > 100 µM
T-47D breast
  GI50: 0.0181 µM
  TGI: > 100 µM
LOX IMVI melanoma
  GI50: < 0.01 µM
  TGI: > 100 µM
HCT-116 colon
  GI50: 0.0191 µM
  TGI: > 100 µM
HCT-15 colon
  GI50: 0.0272 µM
  TGI: > 100 µM
HL-60(TB) leukemia
  GI50: 0.0207 µM
  TGI: 0.0748 µM
TK-10 renal
  GI50: 0.0535 µM
  TGI: > 100 µM
